Structures are written as SMILES.

This experiment has as its target human P2X3 receptor (Homo sapiens (Human), UniProt P56373). The experiment can be described thus: Evaluation of human P2X3 receptor inhibitory activity (Fluo-3 calcium fluorescence, FDSS 3000, ATP stimulation).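 Also: stimulus was 50 nM ATP with fluorescence followed for 3 min, and the response per well was peak post-ATP fluorescence divided by the reading at measurement start.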 The experiment is classed as cell-based. Conditions: human P2X3 receptor, Test Example 1.

Chain of human P2X3 receptor (P56373 whole entry): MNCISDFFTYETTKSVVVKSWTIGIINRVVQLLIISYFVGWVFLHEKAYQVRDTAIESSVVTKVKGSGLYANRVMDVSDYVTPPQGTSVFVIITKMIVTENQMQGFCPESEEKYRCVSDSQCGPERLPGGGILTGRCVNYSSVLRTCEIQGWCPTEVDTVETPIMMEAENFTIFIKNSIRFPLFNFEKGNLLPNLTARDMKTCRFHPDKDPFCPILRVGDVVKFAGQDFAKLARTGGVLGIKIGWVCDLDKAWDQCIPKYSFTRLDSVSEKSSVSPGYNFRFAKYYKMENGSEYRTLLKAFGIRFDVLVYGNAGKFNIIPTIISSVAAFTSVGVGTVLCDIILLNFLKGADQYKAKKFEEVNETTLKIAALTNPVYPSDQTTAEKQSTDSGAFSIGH

With `COc1cc(/N=c2\[nH]c(=O)n(C)c(=O)n2Cc2ccc(Cl)cc2)ccc1Oc1cccc(C(=O)O)n1` [Compound I-2424], the concentration for half-maximal inhibition (IC50) (in general, the concentration needed to halve the response being measured) was determined as 20 nM.
In the case of `CCn1c(=O)[nH]/c(=N\c2ccc(Oc3ccnc(NC(=O)NC)c3)cc2)n(Cc2ccc(Cl)cc2)c1=O` [Compound I-2425] it was 2 nM; in that of `CCn1c(=O)[nH]/c(=N\c2ccc(Oc3ccc(NC(=O)NC)nc3)cc2)n(Cc2ccc(Cl)cc2)c1=O` [Compound I-2426], 11 nM.
In the case of `CCn1c(=O)[nH]/c(=N\c2ccc(Oc3cnc(C#N)cn3)cc2)n(Cc2ccc(Cl)cc2)c1=O` [Compound I-2427] it was 2 nM; in that of `CC(=O)Nc1ccc(Oc2ccc(/N=c3\[nH]c(=O)n(C)c(=O)n3Cc3ccc(Cl)cc3)cc2)cn1` [Compound I-2429], 5 nM.
Under `CC(=O)Nc1cc(Oc2ccc(/N=c3\[nH]c(=O)[nH]c(=O)n3Cc3ccc(Cl)cc3)cc2)ccn1` [Compound I-2430] stands 48 nM.
Consider `CC(=O)Nc1cc(Oc2ccc(/N=c3\[nH]c(=O)n(C)c(=O)n3Cc3ccc(Cl)cc3)cc2)ccn1` [Compound I-2431], for which the half-maximal inhibitory concentration (IC50) was determined as 18 nM.
Under `CCn1c(=O)[nH]/c(=N\c2ccc(Oc3ccnc(C(=O)NC)c3)c(F)c2)n(Cc2ccc(Cl)cc2)c1=O` [Compound I-2432] stands 2 nM; under `CNC(=O)c1cc(Oc2ccc(/N=c3\[nH]c(=O)n(C)c(=O)n3Cc3ccc(Cl)cc3)cc2F)ccn1` [Compound I-2433], 5 nM; under `CCOC(=O)CCn1c(=O)[nH]/c(=N\c2ccc(Oc3ccon3)cc2)n(Cc2ccc(Cl)cc2)c1=O` [Compound I-2434], 4 nM.
`O=C(O)CCn1c(=O)[nH]/c(=N\c2ccc(Oc3ccon3)cc2)n(Cc2ccc(Cl)cc2)c1=O` [Compound I-2435]: the concentration for half-maximal inhibition (IC50) was 37 nM.
For `O=c1[nH]/c(=N\c2ccc(Oc3cccc(F)n3)cc2)n(Cc2ccc(Cl)cc2)c(=O)n1C[C@H](O)CO` [Compound I-2436], the half-inhibitory concentration (IC50) was found to be 4 nM.
In the case of `O=c1[nH]/c(=N\c2ccc(Oc3nccs3)cc2)n(Cc2ccc(Cl)cc2)c(=O)n1CC(CO)CO` [Compound I-2437] it was 6 nM; in that of `O=c1[nH]/c(=N\c2ccc(Oc3ccon3)c(F)c2)n(Cc2ccc(Cl)cc2)c(=O)n1CCO` [Compound I-2438], 7 nM.
Under `O=c1[nH]/c(=N\c2ccc(Oc3ccon3)c(F)c2)n(Cc2ccc(Cl)cc2)c(=O)n1CC(CO)CO` [Compound I-2439] stands 4 nM.
In the case of `O=c1[nH]/c(=N\c2ccc(Oc3ccon3)c(F)c2)n(Cc2ccc(Cl)cc2)c(=O)n1C[C@H](O)CO` [Compound I-2440] it was 5 nM; in that of `CCn1c(=O)[nH]/c(=N\c2ccc(Oc3cccc(Cl)n3)cc2)n(Cc2ccc(Cl)cc2)c1=O` [Compound I-2441], 10 nM.
`Cn1c(=O)[nH]/c(=N\c2ccc(Oc3ccc(C(=O)O)cn3)cc2)n(Cc2ccc(Cl)cc2)c1=O` [Compound I-2442]: the half-maximal inhibitory concentration (IC50) amounted to 18 nM.
In the case of `NC(=O)CCn1c(=O)[nH]/c(=N\c2ccc(Oc3ccon3)cc2)n(Cc2ccc(Cl)cc2)c1=O` [Compound I-2443], the half-inhibitory concentration (IC50) came to 24 nM.
In the case of `CCn1c(=O)[nH]/c(=N\c2ccc(Oc3cc(C(=O)O)ncn3)cc2)n(Cc2ccc(C)cc2)c1=O` [Compound I-2444] it was 8 nM.
In the case of `Cc1ccc(Cn2c(=O)n(C)c(=O)[nH]/c2=N\c2ccc(Oc3cc(C(=O)O)ncn3)cc2)cc1` [Compound I-2445] it was 13 nM; in that of `Cn1c(=O)[nH]/c(=N\c2ccc(Oc3cccc(C#N)n3)cc2)n(C[C@H]2CC[C@H](C)CC2)c1=O` [Compound I-2446], 1 nM.
In the case of `Cn1c(=O)[nH]/c(=N\c2ccc(Oc3cc(C(=O)O)ncn3)cc2)n(Cc2ccc(Cl)cc2)c1=O` [Compound I-2447] it was 10 nM; in that of `O=c1[nH]/c(=N\c2ccc(Oc3nccs3)cc2)n(Cc2ccc(Cl)cc2)c(=O)n1CC(O)CO` (stereo not shown) [Compound I-2448], 11 nM.
`O=c1[nH]/c(=N\c2ccc(Oc3ccc4[nH]cnc4c3)cc2)n(Cc2ccc(Cl)cc2)c(=O)n1CCO` [Compound I-2449]: the IC50 was found to be 9 nM.
In the case of `CCn1c(=O)[nH]/c(=N\c2ccc(Oc3nc(C(=O)O)c(C)s3)cc2)n(Cc2ccc(Cl)cc2)c1=O` [Compound I-2450] it was 8 nM; in that of `Cc1sc(Oc2ccc(/N=c3\[nH]c(=O)n(C)c(=O)n3Cc3ccc(Cl)cc3)cc2)nc1C(=O)O` [Compound I-2451], 25 nM; in that of `O=c1[nH]/c(=N\c2ccc(Oc3ccn[nH]3)cc2)n(Cc2ccc(Cl)cc2)c(=O)n1CCCO` [Compound I-2452], 36 nM.
Under `O=c1[nH]/c(=N\c2ccc(Oc3ccn[nH]3)cc2)n(Cc2ccc(Cl)cc2)c(=O)n1C[C@H](O)CO` [Compound I-2453] stands 64 nM; under `O=c1[nH]/c(=N\c2ccc(Oc3ccn[nH]3)cc2)n(Cc2ccc(Cl)cc2)c(=O)n1CC(CO)CO` [Compound I-2454], 35 nM; under `CCn1c(=O)[nH]/c(=N\c2ccc(Oc3ccn[nH]3)cc2)n(Cc2ccc(Cl)cc2)c1=O` [Compound I-2455], 63 nM.
Under `Cc1cnc(Oc2ccc(/N=c3\[nH]c(=O)n(CC(O)CO)c(=O)n3Cc3ccc(Cl)cc3)cc2)s1` (stereo not shown) [Compound I-2456] stands 8 nM; under `Cc1cnc(Oc2ccc(/N=c3\[nH]c(=O)n(CCO)c(=O)n3Cc3ccc(Cl)cc3)cc2)s1` [Compound I-2457], 13 nM; under `Cc1cnc(Oc2ccc(/N=c3\[nH]c(=O)n(CC(CO)CO)c(=O)n3Cc3ccc(Cl)cc3)cc2)s1` [Compound I-2458], 3 nM.
In the case of `COC(=O)[C@H](C)n1c(=O)[nH]/c(=N\c2ccc(Oc3ccon3)cc2)n(Cc2ccc(Cl)cc2)c1=O` [Compound I-2459], the IC50 was found to be 7 nM.
Under `COC(=O)[C@@H](C)n1c(=O)[nH]/c(=N\c2ccc(Oc3ccon3)cc2)n(Cc2ccc(Cl)cc2)c1=O` [Compound I-2460] stands 35 nM; under `Cn1c(=O)[nH]/c(=N\c2ccc(Oc3ccnc(C(=O)O)c3)c(F)c2)n(Cc2ccc(Cl)cc2)c1=O` [Compound I-2461], 7 nM; under `CCn1c(=O)[nH]/c(=N\c2ccc(Oc3ccnc(C(=O)O)c3)c(F)c2)n(Cc2ccc(Cl)cc2)c1=O` [Compound I-2462], 7 nM.
Under `Cn1c(=O)[nH]/c(=N\c2ccc(Oc3cccc(C(N)=O)n3)cc2)n(C[C@H]2CC[C@H](C)CC2)c1=O` [Compound I-2463] stands 3 nM; under `Cc1ccc(Cn2c(=O)n(C)c(=O)[nH]/c2=N\c2ccc(Oc3ccc(C(N)=O)cn3)cc2)cc1` [Compound I-2464], 10 nM.
As for `Cn1c(=O)[nH]/c(=N\c2ccc(Oc3cccc(C(=O)O)n3)cc2)n(C[C@H]2CC[C@H](C)CC2)c1=O` [Compound I-2465], the half-maximal inhibitory concentration (IC50) was determined as 4 nM.
In the case of `CCn1c(=O)[nH]/c(=N\c2ccc(Oc3cccc(C#N)n3)cc2)n(Cc2ccc(F)cc2)c1=O` [Compound I-2466] it was 16 nM; in that of `CCn1c(=O)[nH]/c(=N\c2ccc(Oc3cncc(C(=O)OC)n3)cc2)n(Cc2ccc(C)cc2)c1=O` [Compound I-2467], 7 nM.
Take `COC(=O)c1cncc(Oc2ccc(/N=c3\[nH]c(=O)n(C)c(=O)n3Cc3ccc(C)cc3)cc2)n1` [Compound I-2468]: the IC50 was found to be 20 nM.
Under `COC(=O)c1cncc(Oc2ccc(/N=c3\[nH]c(=O)n(C)c(=O)n3Cc3ccc(Cl)cc3)cc2)n1` [Compound I-2469] stands 19 nM; under `Cn1c(=O)[nH]/c(=N\c2ccc(Oc3cncc(C(N)=O)n3)cc2)n(Cc2ccc(Cl)cc2)c1=O` [Compound I-2471], 5 nM.
Regarding `CCn1c(=O)[nH]/c(=N\c2ccc(Oc3cncc(C(N)=O)n3)cc2)n(Cc2ccc(C)cc2)c1=O` [Compound I-2472], the half-maximal inhibitory concentration (IC50) was 3 nM.
In the case of `Cc1ccc(Cn2c(=O)n(C)c(=O)[nH]/c2=N\c2ccc(Oc3cncc(C(N)=O)n3)cc2)cc1` [Compound I-2473] it was 8 nM.
Under `CCn1c(=O)[nH]/c(=N\c2ccc(Oc3cncc(C(=O)O)n3)cc2)n(Cc2ccc(C)cc2)c1=O` [Compound I-2474] stands 7 nM; under `Cc1ccc(Cn2c(=O)n(C)c(=O)[nH]/c2=N\c2ccc(Oc3cncc(C(=O)O)n3)cc2)cc1` [Compound I-2475], 12 nM; under `Cn1c(=O)[nH]/c(=N\c2ccc(Oc3cncc(C(=O)O)n3)cc2)n(Cc2ccc(Cl)cc2)c1=O` [Compound I-2476], 13 nM.
In the case of `O=c1[nH]/c(=N\c2ccc(Oc3cnsn3)cc2)n(Cc2ccc(Cl)cc2)c(=O)n1CCO` [Compound I-2477] it was 15 nM.
Take `O=c1[nH]/c(=N\c2ccc(Oc3cnsn3)cc2)n(Cc2ccc(Cl)cc2)c(=O)n1CC(CO)CO` [Compound I-2478]: the IC50 is 5 nM.
Under `O=c1[nH]/c(=N\c2ccc(Oc3cnsn3)cc2)n(Cc2ccc(Cl)cc2)c(=O)n1C[C@H](O)CO` [Compound I-2479] stands 8 nM; under `CC[C@H](C)n1c(=O)[nH]/c(=N\c2ccc(Oc3ccnc(C(=O)O)c3)cc2)n(Cc2ccc(Cl)cc2)c1=O` [Compound I-2480], 6 nM; under `CC[C@H](C)n1c(=O)[nH]/c(=N\c2ccc(Oc3cncc(C(=O)O)c3)cc2)n(Cc2ccc(Cl)cc2)c1=O` [Compound I-2481], 8 nM.
Under `CC[C@@H](C)n1c(=O)[nH]/c(=N\c2ccc(Oc3ccnc(C(=O)O)c3)cc2)n(Cc2ccc(Cl)cc2)c1=O` [Compound I-2482] stands 11 nM; under `CC[C@@H](C)n1c(=O)[nH]/c(=N\c2ccc(Oc3cncc(C(=O)O)c3)cc2)n(Cc2ccc(Cl)cc2)c1=O` [Compound I-2483], 8 nM; under `O=C(O)c1cc(Oc2ccc(/N=c3\[nH]c(=O)n(C4CCC4)c(=O)n3Cc3ccc(Cl)cc3)cc2)ccn1` [Compound I-2484], 8 nM.
In the case of `O=C(O)c1cncc(Oc2ccc(/N=c3\[nH]c(=O)n(C4CCC4)c(=O)n3Cc3ccc(Cl)cc3)cc2)c1` [Compound I-2485] it was 8 nM; in that of `C[C@H](C(=O)O)n1c(=O)[nH]/c(=N\c2ccc(Oc3ccon3)cc2)n(Cc2ccc(Cl)cc2)c1=O` [Compound I-2486], 381 nM.

The values above are taken from patent US9718790B2, “Triazine derivative and pharmaceutical composition having an analgesic activity comprising the same” (SHIONOGI & CO., LTD., priority 2010, dated 2017).
